Laboratory results published in PubChem BioAssay (NCI).
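Step 1: Grow cells in 96-well plates. Step 2: Expose to compound for 48 hours at 5 concentrations. Step 3: Interpolate endpoints linearly; if unreached, use highest concentration. GI50 = concentration required for 50% inhibition of growth. At the TGI there is no net growth.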

Assays:
Test in all cases: growth of human tumour cells (NCI), 48 h
[1] = tested on: 786-0 renal
[2] = tested on: A498 renal
[3] = tested on: A549 NSCLC
[4] = tested on: ACHN renal
[5] = tested on: BT-549 breast
[6] = tested on: CAKI-1 renal
[7] = tested on: CCRF-CEM leukemia
[8] = tested on: COLO 205 colon
[9] = tested on: DU-145 prostate
[10] = tested on: EKVX NSCLC
[11] = tested on: HCC-2998 colon
[12] = tested on: HCT-116 colon
[13] = tested on: HCT-15 colon
[14] = tested on: HOP-62 NSCLC
[15] = tested on: HOP-92 NSCLC
[16] = tested on: HT29 colon
[17] = tested on: K-562 leukemia
[18] = tested on: KM12 colon
[19] = tested on: M14 melanoma
[20] = tested on: MDA-MB-435
[21] = tested on: NCI-H226 lung
[22] = tested on: NCI-H460 lung
[23] = tested on: NCI-H522 lung
[24] = tested on: OVCAR-3 ovarian
[25] = tested on: OVCAR-5 ovarian
[26] = tested on: OVCAR-8 ovarian
[27] = tested on: RXF 393 renal
[28] = tested on: SF-268 CNS
[29] = tested on: SF-295 CNS
[30] = tested on: SF-539 CNS
[31] = tested on: SK-MEL-2 melanoma
[32] = tested on: SK-MEL-28 melanoma
[33] = tested on: SK-MEL-5 melanoma
[34] = tested on: SK-OV-3 ovarian
[35] = tested on: SN12C renal
[36] = tested on: SNB-19 CNS
[37] = tested on: SNB-75 CNS
[38] = tested on: SW-620 colon
[39] = tested on: T-47D breast
[40] = tested on: TK-10 renal
[41] = tested on: U251 CNS
[42] = tested on: UACC-257 melanoma
[43] = tested on: UO-31 renal
[44] = tested on: HL-60(TB) leukemia
[45] = tested on: HS 578T breast
[46] = tested on: IGROV1 ovarian
[47] = tested on: MALME-3M melanoma
[48] = tested on: MCF7 breast
[49] = tested on: MOLT-4 leukemia
[50] = tested on: NCI-H23 lung
[51] = tested on: NCI/ADR-RES ovarian
[52] = tested on: OVCAR-4 ovarian
[53] = tested on: RPMI-8226 leukemia
[54] = tested on: SR leukemia
[55] = tested on: UACC-62 melanoma
[56] = tested on: LOX IMVI melanoma
[57] = tested on: MDA-MB-231 breast
[58] = tested on: PC-3 prostate

Nc1nc(N)c2c(n1)NC(c1ccc(C(F)(F)F)cc1)CC(c1ccc(Nc3nc(NCCO)nc(Nc4ccc(Cl)cc4)n3)cc1)=N2 (stereo not given)
GI50 [1]: 1390 nM
TGI [1]: 2910 nM
GI50 [2]: 1560 nM
TGI [2]: 2900 nM
GI50 [3]: 1730 nM
TGI [3]: 3500 nM
GI50 [4]: 1500 nM
TGI [4]: 2820 nM
GI50 [5]: 1570 nM
TGI [5]: 3160 nM
GI50 [6]: 1450 nM
TGI [6]: 2850 nM
GI50 [7]: 1230 nM
TGI [7]: > 100000 nM
GI50 [8]: 1330 nM
TGI [8]: 2640 nM
GI50 [9]: 1510 nM
TGI [9]: 2840 nM
GI50 [10]: 1520 nM
TGI [10]: 2960 nM
GI50 [11]: 1310 nM
TGI [11]: 2620 nM
GI50 [12]: 1050 nM
TGI [12]: 2410 nM
GI50 [13]: 1150 nM
TGI [13]: 2580 nM
GI50 [14]: 1630 nM
TGI [14]: 3160 nM
GI50 [15]: 1480 nM
TGI [15]: 3430 nM
GI50 [16]: 1360 nM
TGI [16]: 2990 nM
GI50 [17]: 642 nM
TGI [17]: > 100000 nM
GI50 [18]: 1370 nM
TGI [18]: 2880 nM
GI50 [19]: 1640 nM
TGI [19]: 3060 nM
GI50 [20]: 1400 nM
TGI [20]: 2720 nM
GI50 [21]: 1840 nM
TGI [21]: 3910 nM
GI50 [22]: 1960 nM
TGI [22]: 4010 nM
GI50 [23]: 1340 nM
TGI [23]: 2720 nM
GI50 [24]: 1320 nM
TGI [24]: 2940 nM
GI50 [25]: 1600 nM
TGI [25]: 3000 nM
GI50 [26]: 1500 nM
TGI [26]: 2940 nM
GI50 [27]: 1140 nM
TGI [27]: 2500 nM
GI50 [28]: 1660 nM
TGI [28]: 3470 nM
GI50 [29]: 1790 nM
TGI [29]: 3320 nM
GI50 [30]: 1560 nM
TGI [30]: 2970 nM
GI50 [31]: 1670 nM
TGI [31]: 3070 nM
GI50 [32]: 1530 nM
TGI [32]: 2860 nM
GI50 [33]: 1550 nM
TGI [33]: 2890 nM
GI50 [34]: 1830 nM
TGI [34]: 3450 nM
GI50 [35]: 1760 nM
TGI [35]: 3340 nM
GI50 [36]: 1510 nM
TGI [36]: 2950 nM
GI50 [37]: 1700 nM
TGI [37]: 3930 nM
GI50 [38]: 1600 nM
TGI [38]: 3360 nM
GI50 [39]: 1550 nM
TGI [39]: 3690 nM
GI50 [40]: 1780 nM
TGI [40]: 3170 nM
GI50 [41]: 1240 nM
TGI [41]: 2530 nM
GI50 [42]: 1750 nM
TGI [42]: 3190 nM
GI50 [43]: 1430 nM
TGI [43]: 2760 nM

Cc1nn(-c2ccccc2)cc1/C=N/Nc1nc(Nc2ccccc2)nc(Nc2ccc(S(N)(=O)=O)cc2)n1
GI50 [2]: 1710 nM
TGI [2]: 3390 nM
GI50 [4]: 1900 nM
TGI [4]: 3570 nM
GI50 [5]: 1850 nM
TGI [5]: 4560 nM
GI50 [7]: 2090 nM
TGI [7]: > 100000 nM
GI50 [9]: 3060 nM
TGI [9]: 9480 nM
GI50 [10]: 2000 nM
TGI [10]: 5090 nM
GI50 [11]: 1880 nM
TGI [11]: 3630 nM
GI50 [12]: 2000 nM
TGI [12]: 4520 nM
GI50 [13]: 2670 nM
TGI [13]: > 100000 nM
GI50 [44]: 2240 nM
TGI [44]: 7670 nM
GI50 [15]: 2440 nM
TGI [15]: 5440 nM
GI50 [45]: 2770 nM
TGI [45]: 8100 nM
GI50 [16]: 2880 nM
TGI [16]: > 100000 nM
GI50 [46]: 2590 nM
TGI [46]: 6700 nM
GI50 [17]: 2630 nM
TGI [17]: > 100000 nM
GI50 [18]: 2840 nM
TGI [18]: 8330 nM
GI50 [47]: 1600 nM
TGI [47]: 3130 nM
GI50 [48]: 1550 nM
TGI [48]: 3430 nM
GI50 [20]: 1770 nM
TGI [20]: 3460 nM
GI50 [49]: 2290 nM
TGI [49]: > 100000 nM
GI50 [21]: 1850 nM
TGI [21]: 4340 nM
GI50 [50]: 1750 nM
TGI [50]: 3620 nM
GI50 [22]: 2770 nM
TGI [22]: 7380 nM
GI50 [23]: 2660 nM
TGI [23]: 8270 nM
GI50 [51]: > 100000 nM
TGI [51]: > 100000 nM
GI50 [52]: 2560 nM
TGI [52]: 7320 nM
GI50 [25]: 2060 nM
TGI [25]: 5040 nM
GI50 [26]: 2050 nM
TGI [26]: > 100000 nM
GI50 [53]: 1660 nM
TGI [53]: 5410 nM
GI50 [27]: 1770 nM
TGI [27]: 3390 nM
GI50 [29]: 2230 nM
TGI [29]: 5940 nM
GI50 [30]: 1710 nM
TGI [30]: 3270 nM
GI50 [32]: 1800 nM
TGI [32]: 3460 nM
GI50 [33]: 1480 nM
TGI [33]: 2800 nM
GI50 [34]: 2930 nM
TGI [34]: 6610 nM
GI50 [36]: 3440 nM
TGI [36]: > 100000 nM
GI50 [37]: 2690 nM
TGI [37]: 8720 nM
GI50 [54]: 2450 nM
TGI [54]: > 100000 nM
GI50 [38]: 3380 nM
GI50 [40]: 1480 nM
TGI [40]: 3500 nM
GI50 [41]: 3650 nM
TGI [41]: > 100000 nM
GI50 [42]: 2500 nM
TGI [42]: 7430 nM
GI50 [55]: 1780 nM
TGI [55]: 3570 nM
GI50 [43]: 1720 nM
TGI [43]: 3540 nM

O=C1Nc2cc(OC(F)(F)F)ccc2Oc2ccc(-c3ccnc(N4CC[C@H](O)C4)c3)cc21
GI50 [1]: 31.6 nM
TGI [1]: 2740 nM
GI50 [2]: 10600 nM
TGI [2]: 25900 nM
GI50 [3]: 39.2 nM
TGI [3]: 3460 nM
GI50 [4]: 55.2 nM
TGI [4]: 5150 nM
GI50 [5]: 138 nM
TGI [5]: 1690 nM
GI50 [6]: < 10 nM
TGI [6]: 9640 nM
GI50 [7]: 25.1 nM
TGI [7]: 2600 nM
GI50 [8]: 18.1 nM
TGI [8]: 51.3 nM
GI50 [9]: 44.6 nM
TGI [9]: 4380 nM
GI50 [10]: 43.5 nM
TGI [10]: 20400 nM
GI50 [11]: 30 nM
TGI [11]: 1550 nM
GI50 [12]: < 10 nM
TGI [12]: 1190 nM
GI50 [13]: 10.3 nM
TGI [13]: 2860 nM
GI50 [44]: < 10 nM
TGI [44]: 105 nM
GI50 [14]: 35.1 nM
TGI [14]: 4530 nM
GI50 [15]: 1810 nM
TGI [15]: 18700 nM
GI50 [45]: 23.9 nM
TGI [45]: 5590 nM
GI50 [16]: 16.3 nM
TGI [16]: 261 nM
GI50 [46]: 43.1 nM
TGI [46]: 8780 nM
GI50 [17]: < 10 nM
TGI [17]: 1730 nM
GI50 [18]: < 15.2 nM
TGI [18]: 2470 nM
GI50 [56]: 32 nM
TGI [56]: 1490 nM
GI50 [19]: 11.4 nM
TGI [19]: 1810 nM
GI50 [47]: 48.9 nM
TGI [47]: 2090 nM
GI50 [48]: < 10 nM
TGI [48]: 1620 nM
GI50 [57]: 48 nM
TGI [57]: 1830 nM
GI50 [20]: < 10 nM
TGI [20]: < 11.6 nM
GI50 [49]: 32.7 nM
TGI [49]: 2160 nM
GI50 [21]: 280 nM
TGI [21]: 5540 nM
GI50 [22]: < 12.9 nM
TGI [22]: 1060 nM
GI50 [23]: < 13.1 nM
TGI [23]: 42.9 nM
GI50 [51]: 30.6 nM
TGI [51]: 6250 nM
GI50 [24]: < 11.7 nM
TGI [24]: 1330 nM
GI50 [52]: 1120 nM
TGI [52]: 3000 nM
GI50 [25]: 49.2 nM
TGI [25]: 6370 nM
GI50 [26]: 34.3 nM
TGI [26]: 651 nM
GI50 [58]: 19.4 nM
TGI [58]: 5480 nM
GI50 [53]: 34.9 nM
TGI [53]: 2050 nM
GI50 [27]: < 15.4 nM
TGI [27]: 323 nM
GI50 [28]: 485 nM
TGI [28]: 15800 nM
GI50 [29]: 16.6 nM
TGI [29]: 6260 nM
GI50 [30]: 22.7 nM
TGI [30]: 1040 nM
GI50 [31]: 32.1 nM
TGI [31]: 18500 nM
GI50 [32]: 1200 nM
TGI [32]: 2600 nM
GI50 [33]: 37.8 nM
TGI [33]: 487 nM
GI50 [34]: 36.7 nM
TGI [34]: 14700 nM
GI50 [35]: 103 nM
TGI [35]: 2680 nM
GI50 [36]: 36.6 nM
TGI [36]: 5740 nM
GI50 [37]: < 16.3 nM
TGI [37]: 1120 nM
GI50 [54]: < 10 nM
TGI [54]: 2210 nM
GI50 [38]: < 17.7 nM
TGI [38]: 1660 nM
GI50 [40]: 7650 nM
TGI [40]: 17300 nM
GI50 [41]: 35.8 nM
TGI [41]: 1850 nM
GI50 [42]: 3600 nM
TGI [42]: 9370 nM
GI50 [55]: < 17.3 nM
TGI [55]: 5240 nM
GI50 [43]: 57 nM
TGI [43]: 5630 nM
